Test results: US12636287B2, “Organic compounds” (INTRA-CELLULAR THERAPIES, INC., priority 2018, dated 2026)

Experiments:
[1] = tested on: UWLV301 GBM cell line; experiment: Sensitivity of GBM cell line to Compounds 1 and 2 (ID50); format: cell-based; conditions: Homo sapiens
[2] = tested on: IN1951 GBM cell line; experiment: as above; format: cell-based; conditions: Homo sapiens
[3] = tested on: UWLV304 GBM cell line; experiment: as above; format: cell-based; conditions: Homo sapiens
[4] = tested on: IN1528 GBM cell line; experiment: as above; format: cell-based; conditions: Homo sapiens
[5] = tested on: U251MG GBM cell line; experiment: as above; format: cell-based; conditions: Homo sapiens, U-251
[6] = tested on: IN859 GBM cell line; experiment: as above; format: cell-based; conditions: Homo sapiens
[7] = tested on: IN2045 GBM cell line; experiment: as above; format: cell-based; conditions: Homo sapiens
[8] = tested on: GBM cells; experiment: Proliferation and survival of GBM cells over 8 days; format: cell-based, human; conditions: for change in GBM cell population by day 8 / rate of proliferation in comparison with untreated samples: 10 μM and 20 μM; for change in GBM cell population by day 8: UWLV301, UWLV304, IN1951, U251MG and IN2045; for rate of proliferation in comparison with untreated samples: recorded daily for 8 days, all cell lines; for slowing or eliminating the proliferation of the GBM cell lines: summary statement
Protocol: Further studies were carried out to test the effect of Compounds 1 and 2 on proliferation and survival of the GBM cells. […] Results on the change in cell population were observed and recorded daily for 8 days.

[9] = target: T1, PDE1 (bovine brain); format: biochemical
T1 construct: Ki; other: PDE1 (bovine brain)

[10] = target: T2, bovine retina PDE6 (Bos taurus, UniProt P11541+P23439); experiment: Inhibitory constant against PDEs; format: biochemical
T2 construct: bovine retina PDE6; from tissue; host or cells: bovine retina
T2 sequence (P11541 2-856 limits assumed): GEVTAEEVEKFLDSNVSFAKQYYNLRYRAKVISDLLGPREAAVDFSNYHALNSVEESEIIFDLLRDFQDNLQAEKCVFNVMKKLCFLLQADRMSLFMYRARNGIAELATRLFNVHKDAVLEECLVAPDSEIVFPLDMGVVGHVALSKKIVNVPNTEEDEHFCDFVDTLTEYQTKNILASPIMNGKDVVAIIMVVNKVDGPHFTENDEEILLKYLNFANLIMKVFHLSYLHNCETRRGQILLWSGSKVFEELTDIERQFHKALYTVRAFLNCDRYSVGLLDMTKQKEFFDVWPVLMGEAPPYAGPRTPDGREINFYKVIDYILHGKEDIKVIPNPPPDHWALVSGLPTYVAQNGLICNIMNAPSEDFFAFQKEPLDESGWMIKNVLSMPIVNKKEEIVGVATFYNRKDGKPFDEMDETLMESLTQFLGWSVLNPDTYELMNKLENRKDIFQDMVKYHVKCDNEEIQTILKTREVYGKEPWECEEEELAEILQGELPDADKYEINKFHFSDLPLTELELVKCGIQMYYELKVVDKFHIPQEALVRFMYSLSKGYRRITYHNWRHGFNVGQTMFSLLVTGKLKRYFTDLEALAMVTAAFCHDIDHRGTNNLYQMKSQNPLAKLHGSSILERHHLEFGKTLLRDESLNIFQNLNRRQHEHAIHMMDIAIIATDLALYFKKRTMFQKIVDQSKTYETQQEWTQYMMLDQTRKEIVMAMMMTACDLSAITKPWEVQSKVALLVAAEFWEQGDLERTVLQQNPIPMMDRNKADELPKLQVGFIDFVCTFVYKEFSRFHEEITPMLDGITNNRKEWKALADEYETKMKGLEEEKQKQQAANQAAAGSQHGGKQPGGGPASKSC
T2 sequence (P23439 2-850 limits assumed): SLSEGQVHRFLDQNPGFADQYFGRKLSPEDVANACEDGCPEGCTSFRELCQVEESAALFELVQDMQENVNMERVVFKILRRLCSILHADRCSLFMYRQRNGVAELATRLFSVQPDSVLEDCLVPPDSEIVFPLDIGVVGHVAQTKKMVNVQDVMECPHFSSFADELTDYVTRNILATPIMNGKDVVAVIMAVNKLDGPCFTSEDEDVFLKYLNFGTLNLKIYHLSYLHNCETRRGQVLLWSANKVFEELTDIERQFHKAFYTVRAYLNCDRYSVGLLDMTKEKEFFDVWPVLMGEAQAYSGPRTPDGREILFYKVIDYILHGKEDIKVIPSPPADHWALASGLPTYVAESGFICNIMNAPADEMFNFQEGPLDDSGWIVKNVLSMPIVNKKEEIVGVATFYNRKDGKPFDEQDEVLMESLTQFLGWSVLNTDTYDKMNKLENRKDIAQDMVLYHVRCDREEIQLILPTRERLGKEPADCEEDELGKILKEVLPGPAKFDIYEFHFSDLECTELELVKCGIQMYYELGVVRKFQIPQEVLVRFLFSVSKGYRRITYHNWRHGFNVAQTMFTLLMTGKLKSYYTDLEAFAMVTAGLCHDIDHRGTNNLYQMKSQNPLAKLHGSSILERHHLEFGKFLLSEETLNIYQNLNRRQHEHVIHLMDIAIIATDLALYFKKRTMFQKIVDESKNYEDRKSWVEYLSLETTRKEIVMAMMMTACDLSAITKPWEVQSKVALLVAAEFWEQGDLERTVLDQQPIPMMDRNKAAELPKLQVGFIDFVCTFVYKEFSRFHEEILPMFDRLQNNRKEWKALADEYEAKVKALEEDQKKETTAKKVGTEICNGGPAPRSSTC

CN1C(=O)c2c(nn(Cc3ccc(-c4cccc(F)n4)cc3)c2Nc2ccccc2)N2C1=N[C@@H]1CCC[C@@H]12 [Compound 1]
IC50 [1]: 5.4 µM
IC50 [2]: 2.04 µM
IC50 [3]: 6.4 µM
IC50 [4]: 26.5 µM
IC50 [5]: 17.8 µM
IC50 [6]: 34.9 µM
IC50 [7]: 18.4 µM
change in GBM cell population by day 8 [8]: overall decrease
rate of proliferation in comparison with untreated samples [8]: proliferated at a slower rate
slowing or eliminating the proliferation of the GBM cell lines [8]: highly effective
Ki [9]: 0.058 nM
Ki [10]: 0.32 µM

CC(=O)c1ccc(Cn2nc3c(c2Nc2ccc(F)cc2)C(=O)N(C)C2=NC(C)(C)CN23)cc1 [Compound 2]
IC50 [1]: 4.73 µM
IC50 [2]: 1.03 µM
IC50 [3]: 2.87 µM
IC50 [4]: 9.45 µM
IC50 [5]: 32 µM
IC50 [6]: 9.77 µM
IC50 [7]: 12 µM
change in GBM cell population by day 8 [8]: overall decrease
rate of proliferation in comparison with untreated samples [8]: proliferated at a slower rate
slowing or eliminating the proliferation of the GBM cell lines [8]: highly effective
